Experimental data as given in EPA's ToxValDB 9.5 (doi:10.2903/j.efsa.2006.78r).

Key:
Typhlodromus pyri = assay: LR50; higher = less toxic; details: not reported; mortality
Daphnia magna = details: chronic/long-term; duration: 21 days
Rattus norvegicus = details: oral, histopathology: nonneoplastic
Apis mellifera = details: acute; duration: 48 hours; oral; unspecified; mortality
Cucumis sativus = details: chronic/long-term; other
[1] = acute, oral, unspecified, mortality

Compound: CCCOC(=O)NCCCN(C)C.Cl [Propamocarb hydrochloride]
- LR50 (Typhlodromus pyri): > 360 g/ha
- NOEC (Daphnia magna): 12.3 mg/L
- LC50 (Lepomis macrochirus; acute, duration: 96 hours, mortality): > 92 µg/mL
- NOEC (Lepomis macrochirus; chronic/long-term, duration: 32 days): > 6.3 mg/L
- LD50 [1]: > 1330 mg/kg-day
- LEC (chronic/long-term): 104 mg/kg-day
- LC50 (Tagia sp.; acute, duration: 14 days, mortality): > 660 mg/kg
- NOEC (Tagia sp.; chronic/long-term, duration: 56 days, reproduction): 362 mg/kg
- NOAEL (Rattus norvegicus; chronic, duration: 52 weeks, diet, F): 29 mg/kg-day
- NOAEL (Rattus norvegicus; short-term, duration: 28 days, gavage): 100 mg/kg-day
- LD50 (Apis mellifera): > 84 µg/piece
- NOEC (Cucumis sativus): 9180 g/ha
- LD50 (Bird; [1]): > 1840 mg/kg-day
- NOEC (Bird; reproductive): 105 mg/kg-day
- LC50 (Bird; short-term, oral, feed, mortality): > 962 mg/kg-day
